Measurements: patent US11566007B2, “Ras inhibitors” (Revolution Medicines, Inc., priority 2019, dated 2023)

Key:
[1] = target: NRAS WT (Homo sapiens (Human), UniProt P01111+P62937); test: Ras-Raf (BRAF RBD) disruption / FRET / MOA assay, NRAS WT; type: biochemical; conditions: read-out: IC50* NRAS WT FRET data
Method in brief: (§1)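 Compounds were tested as a 10-point 3-fold dilution series from 30 μM final for their ability to drive ternary complex formation between nucleotide-loaded Ras and cyclophilin A, displacing the BRAF RBD. After 3 h at 25° C., anti-His Eu-W1024 (10 nM) and anti-GST allophycocyanin (50 nM) were added for 1.5 h. A TR-FRET ratio decrease versus DMSO gave IC50.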

[2] = system: NCI-H358 cells (K-Ras G12C); test: Potency assay: pERK in NCI-H358 cells; type: cell-based, human; conditions: Homo sapiens, NCI-H358; H358 KRAS G12C; read-out: pERK EC50
Method in brief: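 4 h cpd, 37 °C; 10-pt 3-fold series, 10 mM DMSO top stock, duplicates. Readout pERK: AlphaLISA SureFire Ultra or In-Cell Western (IR-800CW secondary, DRAQ5 DNA stain). IC50, 4-PL fit vs log conc.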

[3] = target: NRAS Q61R (Homo sapiens (Human), UniProt P01111+P62937, Q61R); test: Ras-Raf (BRAF RBD) disruption / FRET / MOA assay, NRAS Q61R; type: biochemical; conditions: NRAS Q61R; Ras-Raf disruption/FRET/MOA assay; read-out: IC50* NRAS Q61R FRET data
Method in brief: as §1

[4] = target: K-Ras G12C (Homo sapiens (Human), UniProt P01116+P62937, G12C); test: Ras-Raf (BRAF RBD) disruption / FRET / MOA assay, KRAS G12C; type: biochemical; conditions: KRAS G12C; Ras-Raf disruption/FRET/MOA assay; read-out: IC50* KRAS G12C FRET data
Method in brief: (§2)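 Ternary complex formation (Ras–compound–cyclophilin A) displacing BRAF RBD, monitored by TR-FRET. Three hours at 25° C with compound (top 30 μM final), then 1.5 h with the labelled antibodies. Lower ratio than DMSO indicates disruption; IC50 reported.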

[5] = target: K-Ras G13C (Homo sapiens (Human), UniProt P01116+P62937, G13C); test: Ras-Raf (BRAF RBD) disruption / FRET / MOA assay, KRAS G13C; type: biochemical; conditions: KRAS G13C; Ras-Raf disruption/FRET/MOA assay; read-out: IC50* KRAS G13C FRET data
Method in brief: as §2

[6] = target: KRAS Q61H (Homo sapiens (Human), UniProt P01116+P62937, Q61H); test: Ras-Raf (BRAF RBD) disruption / FRET / MOA assay, KRAS Q61H; type: biochemical; conditions: Ras-Raf disruption/FRET/MOA assay; class symbols; read-out: KRAS Q61H FRET data IC50
Method in brief: as §1

Sequence of K-Ras G13C (P01116-2 other isoform, or with tags, fused parts or gaps G13C): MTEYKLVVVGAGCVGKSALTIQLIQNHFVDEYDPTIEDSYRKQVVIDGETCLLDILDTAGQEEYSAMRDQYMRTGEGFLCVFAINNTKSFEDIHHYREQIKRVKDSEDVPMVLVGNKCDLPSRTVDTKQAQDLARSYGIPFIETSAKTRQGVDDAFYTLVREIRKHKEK
Sequence of K-Ras G13C (P62937 whole entry): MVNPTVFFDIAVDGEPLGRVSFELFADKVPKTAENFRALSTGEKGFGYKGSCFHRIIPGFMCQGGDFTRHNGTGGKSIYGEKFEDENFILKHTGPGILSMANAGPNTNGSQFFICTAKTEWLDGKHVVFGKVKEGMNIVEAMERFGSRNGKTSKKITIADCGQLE
Sequence of K-Ras G12C (P01116-2 other isoform, or with tags, fused parts or gaps G12C): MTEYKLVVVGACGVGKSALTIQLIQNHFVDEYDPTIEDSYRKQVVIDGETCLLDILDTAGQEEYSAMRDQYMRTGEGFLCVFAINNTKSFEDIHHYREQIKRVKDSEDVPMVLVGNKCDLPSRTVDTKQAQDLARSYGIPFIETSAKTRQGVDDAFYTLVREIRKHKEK
Sequence of K-Ras G12C (P62937 whole entry): as the sequence (P62937 whole entry) above
Sequence of NRAS Q61R (P01111 whole entry Q61R): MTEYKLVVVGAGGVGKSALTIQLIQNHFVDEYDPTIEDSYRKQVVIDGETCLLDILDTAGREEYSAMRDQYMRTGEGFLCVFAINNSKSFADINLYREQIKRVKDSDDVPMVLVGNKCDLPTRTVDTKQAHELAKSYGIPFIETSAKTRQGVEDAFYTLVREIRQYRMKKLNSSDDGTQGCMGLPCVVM
Sequence of NRAS Q61R (P62937 whole entry): as the sequence (P62937 whole entry) above
Sequence of NRAS WT (P01111 whole entry): as the sequence (P01111 whole entry Q61R) above, with R61Q counted along it
Sequence of NRAS WT (P62937 whole entry): as the sequence (P62937 whole entry) above
Sequence of KRAS Q61H (P01116-2 other isoform, or with tags, fused parts or gaps Q61H): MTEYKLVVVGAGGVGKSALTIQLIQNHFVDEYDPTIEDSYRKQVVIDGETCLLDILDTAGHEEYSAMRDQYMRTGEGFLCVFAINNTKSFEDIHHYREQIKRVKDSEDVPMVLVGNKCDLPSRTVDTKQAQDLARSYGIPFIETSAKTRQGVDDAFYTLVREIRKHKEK
Sequence of KRAS Q61H (P62937 whole entry): as the sequence (P62937 whole entry) above

SMILES	IC50 [1] [nM]	EC50 [2] [nM]	IC50 [3] [nM]	IC50 [4] [nM]	IC50 [5] [nM]	IC50 [6] [nM]
CCn1c(-c2cccnc2[C@H](C)OC)c2c3cc(ccc31)-c1csc(n1)C[C@H](NC(=O)[C@H](C(C)C)N(C)C(=O)N1CCCOC13CN(C(=O)C#CC(C)(C)N(C)C)C3)C(=O)N1CCC[C@H](N1)C(=O)OCC(C)(C)C2 (atropisomer, axis not shown) [Example A666]	> 10000	< 5000	> 10000	1000 to 10000	> 10000	1000 to 10000
C=CC(=O)N1CC[C@]2(COCCN2C(=O)N(C)[C@H](C(=O)N[C@H]2Cc3nc(cs3)-c3ccc4c(c3)c(c(-c3cccnc3[C@H](C)OC)n4CC)CC(C)(C)COC(=O)[C@@H]3CCCN(N3)C2=O)C(C)C)C1 (atropisomer, axis not shown) [Example A676]	100 to 1000	< 5000	100 to 1000	100 to 1000	1000 to 10000	10 to 100
C=CC(=O)N1CC2(CCN(C(=O)N(C)[C@H](C(=O)N[C@H]3Cc4cccc(c4)-c4ccc5c(c4)c(c(-c4cccnc4[C@H](C)OC)n5CC)CC(C)(C)COC(=O)[C@@H]4CCCN(N4)C3=O)C(C)C)CC2)C1 (atropisomer, axis not shown) [Example A680]	100 to 1000	< 5000	100 to 1000	100 to 1000	10 to 100	100 to 1000
C=CC(=O)N1CC[C@@H]2[C@H](C1)CN2C(=O)N(C)[C@H](C(=O)N[C@H]1Cc2nc(cs2)-c2ccc3c(c2)c(c(-c2cccnc2[C@H](C)OC)n3CC)CC(C)(C)COC(=O)[C@@H]2CCCN(N2)C1=O)C(C)C (atropisomer, axis not shown) [Example A688]	100 to 1000	< 5000	100 to 1000	100 to 1000	100 to 1000	100 to 1000
C=CC(=O)N1CCC2(CCCN(C(=O)N(C)[C@H](C(=O)N[C@H]3Cc4nc(cs4)-c4ccc5c(c4)c(c(-c4cccnc4[C@H](C)OC)n5CC)CC(C)(C)COC(=O)[C@@H]4CCCN(N4)C3=O)C(C)C)C2)CC1 (atropisomer, axis not shown) [Example A696]	100 to 1000	< 5000	100 to 1000	100 to 1000	100 to 1000	10 to 100
CCn1c(-c2cccnc2[C@H](C)OC)c2c3cc(ccc31)-c1cccc(c1)C[C@H](NC(=O)[C@@H](COC1CN(C(=O)C#CC(C)(C)O)C1)C(C)C)C(=O)N1CCC[C@H](N1)C(=O)OCC(C)(C)C2 (atropisomer, axis not shown) [Example A708]	1000 to 10000	< 5000	> 10000	100 to 1000	1000 to 10000	1000 to 10000
CCn1c(-c2cccnc2[C@H](C)OC)c2c3cc(ccc31)-c1csc(n1)C[C@H](NC(=O)[C@H](C(C)C)N(C)C(=O)N1CCN(C(=O)/C=C/CN(C)C)C[C@@H]1C)C(=O)N1CCC[C@H](N1)C(=O)OCC(C)(C)C2 (atropisomer, axis not shown) [Example A709]	10 to 100	< 5000	100 to 1000	10 to 100	100 to 1000	10 to 100
CCn1c(-c2cccnc2[C@H](C)OC)c2c3cc(ccc31)-c1csc(n1)C[C@H](NC(=O)[C@H](C(C)C)N(C)C(=O)N1CC(N(C)C(=O)/C=C/CN(C)C)C1)C(=O)N1CCC[C@H](N1)C(=O)OCC(C)(C)C2 (atropisomer, axis not shown) [Example A710]	100 to 1000	< 5000	100 to 1000	10 to 100	100 to 1000	10 to 100
C=C(OC)C(=O)N1CC(N(C)C(=O)N(C)[C@H](C(=O)N[C@H]2Cc3nc(cs3)-c3ccc4c(c3)c(c(-c3cccnc3[C@H](C)OC)n4CC)CC(C)(C)COC(=O)[C@@H]3CCCN(N3)C2=O)C(C)C)C1 (atropisomer, axis not shown) [Example A713]	100 to 1000	< 5000	100 to 1000	100 to 1000	1000 to 10000	100 to 1000
C=CC(=O)N1CC[C@H](C(=O)N(C)[C@H](C(=O)N[C@H]2CN3CCC=C(C3)c3ccc4c(c3)c(c(-c3cccnc3[C@H](C)OC)n4CC)CC(C)(C)COC(=O)[C@@H]3CCCN(N3)C2=O)C(C)C)C1 (atropisomer, axis not shown) [Example A716, (3S)-1-acryloyl-N-((2S)-1-(((6^3S,4S)-1^1-ethyl-1^2-(2-((S)-1-methoxyethyl)pyridin-3-yl)-10,10-dimethyl-5,7-dioxo-2^1,2^2,2^3,2^6,6^1,6^2,6^3,6^4,6^5,6^6-decahydro-1^1H-8-oxa-1(5,3)-indola-6(1,3)-pyridazina-2(5,1)-pyridinacycloundecaphane-4-yl)amino)-3-methyl-1-oxobutan-2-yl)-N-methylpyrrolidine-3-carboxamide]	1000 to 10000	< 5000	> 10000	100 to 1000	1000 to 10000	1000 to 10000
